Results: patent US12409304B2, “Drug delivery devices with drug-permeable component and methods” (TARIS Biomedical LLC, priority 2013, dated 2025)
Structures can show the parent of a compound that is named as a salt.

Assays:
[1] = In vitro drug permeation from Tecophilic film pouches loaded with a gemcitabine tablet (Example 1); type: physicochemical; conditions: DI water at 37° C.
Protocol: Pouches formed of Tecophilic™ film and loaded with gemcitabine (GEM) were tested in vitro for drug permeation. The effect of gamma irradiation on these pouches was also studied. The pouches were made of HP-93A-100 and HP-60D-60 films with thickness of 0.5 mm (films provided by Lubrizol) (http://www.lubrizol.com/Medical/Products/Tecophilic.html). These thermoplastic polyurethanes (TPUs) were selected for their biocompatibility and ability to absorb equilibrium water content up to 100% of the weight of dry resin, as well as other properties. The material properties of the film materials used are given below in Table 1. Each pouch was made out of 2 films which were heat-sealed at all four edges of each pouch after loading each pouch with a single tablet of gemcitabine HCl or base formulated as follows: (1) Gemcitabine HCl: 89% GEM HCl, 10% Isomalt, 1% Lubritab (water insoluble), or […] Some of the pouches were gamma irradiated (25 kGy). The pouches were then placed into 21 mL DI water at 37° C. Thereafter, at each time point, 5× inversion, 1 mL sample was taken out followed by a 1 mL DI water refill.

physchem = conditions: 37 °C, water
[2] = Approximate solubility of drugs in water
[3] = In vitro release from Tecophilic film pouches loaded with gemcitabine HCl and urea tablets (Example 1A); type: physicochemical; conditions: pouches with 1 gemcitabine HCl tablet and 4 urea tablets, DI water at 37° C.
Protocol: Pouches constructed as in Example 1 were made, except each was loaded with 1 gemcitabine (GEM) HCl tablet and 4 tablets of urea. The pouches were then placed into 21 mL DI water at 37° C. Thereafter, at each time point, 5× inversion, 1 mL sample was taken out followed by a 1 mL DI water refill.

[4] = In vitro gemcitabine release from one-module and four-module devices with end wall disks (Example 5); type: physicochemical; conditions: one module device, jar rotated at 4 rpm or not
Protocol: There were three experimental groups tested: 1) one module device with the releasing jar being rotated in the rotator at 4 rpm ('Rotator'), 2) one module device without the jar rotated ('Static'), and 3) four module device without the jar rotated ('Static'). Each module is comprised of silicone tube made of MED-4750 (Nusil) with the dimensions of 2.64 mm ID and 0.20 mm wall thickness. Multiple gemcitabine HCl tablets with 2.6 mm OD were loaded into the silicone tube with each module having a total gemcitabine HCl payload of approximately 190 mg. The tablet formulation was 90% gemcitabine HCl, 5% PVP, 2.5% Neusilin, and 2.5% magnesium stearate. […] Thermoplastic Polyurethanes) at each end of the tablet drug core. The dimensions of each disk were approximately 0.5 mm thickness and 3.0 mm OD. The OD (3.0 mm) of the disks was larger than the silicone tube ID (2.64 mm), and so the disks were frictionally fit in the silicone tube. Each module has a silicone outer washer, made of MED-4780 (Nusil), located next to each disk with silicone adhesive (MED3-4213) applied around the washer, to stabilize the outward migration of the disk. […] In addition, each module has a polyimide inner washer with 2.67 mm ID, 0.064 mm wall, and approximately 4 mm length. The inner washer was filled with a tablet so that the disk was initially in contact with the tablet. […]

Structure (SMILES): Nc1ccn([C@@H]2O[C@H](CO)[C@@H](O)C2(F)F)c(=O)n1 [gemcitabine HCl]
- relative speed of release from pouches ([1]; comparison of film grades and of drug forms): released faster than gemcitabine base
- solubility (physchem): ~80 mg/mL

Structure (SMILES): Nc1ccn([C@@H]2O[C@H](CO)[C@@H](O)C2(F)F)c(=O)n1 [gemcitabine base]
- approximate solubility ([2]; water at 37° C.): ~15 mg/mL

Structure (SMILES): Nc1ccn([C@@H]2O[C@H](CO)[C@@H](O)C2(F)F)c(=O)n1 [gemcitabine]
- permeation through 0.5 mm Tecophilic film ([1]; HP-93A-100 and HP-60D-60 pouches): permeated 0.5 mm Tecophilic™ film
- permeation through 0.5 mm Tecophilic film [3]: permeated 0.5 mm Tecophilic™ film in one day
- gemcitabine release rate, Static vs Rotator [4]: no significant difference

Structure (SMILES): Cc1ccc(O)c([C@H](CCN(C(C)C)C(C)C)c2ccccc2)c1 [tolterodine tartrate]
- solubility (physchem): ~12 mg/mL

Structure (SMILES): O=C(O[C@H]1C[C@H]2CC[C@@H](C1)[N+]21CCCC1)C(O)(c1ccccc1)c1ccccc1 [trospium chloride]
- solubility ([2]; 37 °C, water): ~500 mg/mL

Structure (SMILES): NC(N)=O [urea]
- permeation through 0.5 mm Tecophilic film [3]: permeated 0.5 mm Tecophilic™ film in one day
